According to patent US20240228536A1, “PEPTIDES FOR USE IN SKIN AND HAIR PIGMENTATION” (Follicum AB, priority 2020, published 2024):
Peptide text beside a SMILES is read from it.

Legend:
[1] = Solubility of FOL-005 in propylene glycol; format: physicochemical; details: in propylene glycol at room temperature
[2] = Stability study, purity of FOL-005 by HPLC on storage; format: physicochemical
Protocol: FOL-005 lyophilized powder was dissolved in phosphate/citrate buffer of pHs 5, 6, 7 or 7.6. Samples of each formulation were analysed for purity using high-pressure liquid chromatography after up to 3 months of storage at 25° C. respectively. In addition, an essentially water-free formulation of FOL-005 was stored at 25° C. and samples were analysed for purity after up to 12 months of storage.
FOL-005/sucrose lyophilized powder was formulated to a suspension in dried or un-dried isopropyl myristate, paraffin oil/petrolatum, Sorbitan laurate and glyceryl behenate. Samples of each formulation were analysed for purity using high pressure liquid chromatography after up to 12 months of storage at 2-8, 25 and 30° C. respectively.

skin equivalents = experiment: Total melanin assay; format: cell-based, human; details: experiment 2, 10 mg/ml topical, day 20, n=4
Protocol: The skin equivalents used in this study was from the same donors as in Example 2. The determination of the total melanin content of the skin equivalent was determined using a total melanin assay.
The total melanin content of the SE was calculated by dissolving the SE in Soluene and reading the absorbance against a standard curve. The SEs were removed from culture on day 20 and washed with PBS. They were then transferred to a glass centrifuge tube and 500 μl Soluene added. The tubes were then covered with […]®, gently vortexed and placed on the Thermomixer at 50° C. for 1 hour. The tubes were then gently vortexed and 150 μl of the sample and synthetic melanin standards pipetted in triplicate into a glass 96 well plate. The absorbance was then measured at 490 nm on a Spectrophotometer. Results are presented in μg/ml against a standard curve. The change of melanin content is expressed as a percentage change versus vehicle control samples. An ANOVA (with Dunnett's post-test) was used for the statistical analysis.
Three experiments were conducted, and the same donors were used as in Example 2. The sample sizes were as follows: experiment 1 n=2, experiment 2 n=4 and experiment 3 n=7. Peptides 1 (SEQ ID NO: 2), 3 (SEQ ID NO: 3) and 4 (SEQ ID NO: 4) were tested.

skin equivalents (SEs) = experiment: H&E and Warthin Starry staining of skin equivalents; format: cell-based, human; details: day 20
Text: Two skin equivalents (SEs) were used from one donor.
The analysis was achieved using the Warthin Starry assay using our recently published method (Joly-Tonetti et al 2016) and hematoxylin&eosin (H&E) staining.
The SEs were stained with Warthin Starry stain to visualise and quantify the melanin in sections. The SEs were removed from culture on day 20 and washed in PBS. They were then flash frozen in liquid nitrogen and mounted in OCT for sectioning. 10 μm sections were cut using a cryostat, the sections collected on slides and fixed in Acetone for 10 mins. The OCT was removed from the section by washing in acidulated water for 20 mins. The slides were then incubated in 1% silver nitrate solution for 1 hour at 43° C. […] The slides were stained for 2 mins then the staining was stopped by running the slides under hot tap water. Slides were then mounted using Histomount. Brightfield images were captured using a Nikon Eclipse microscope. Image analysis of the melanin density in sections was performed using Image J and densitometric thresholding. Results are presented in pixel intensity units. For the hematoxylin&eosin (H&E) staining, the SEs were flash frozen, sectioned and fixed as above. The slides were then washed in dH2O to remove the OCT for 20 mins. Haematoxylin was filtered using filter paper into a Coplin jar. Further Coplin jars were also prepared containing the following: Tap Water, Scott's Tap Water, 0.25% Eosin, 50% Ethanol, 70% Ethanol, 90% Ethanol, Ethanol and Histoclear. The slides were then placed into Haematoxylin for 2 mins, and then placed into tap water for 30 secs, Scott's Tap Water for 1 min & Eosin for 2 mins. The slides were then dehydrated through the Ethanol (1 min each) then placed into Histoclear for 2 mins and mounted using Histomount. Brightfield images were captured using a Nikon Eclipse microscope.

[3] = test system: Pigmented skin equivalents (SEs), Melanoderms Mel-300-A (donor) and Mel-300-C-2 (donor); experiment: Skin equivalent culture, photographic assessment of pigmentation; format: cell-based, human
Protocol: The skin equivalent surface area was 63.6 mm^2. Other equipment used included SMZ1000 Stereo Microscope (Nikon); UC30 Microscope Camera (Olympus); Phosphate-Buffered Saline (PBS); 6-well Tissue Culture Plates (Sarstedt); Image J software (https://imagej.nih.gov); Paintshop Photo Pro Software (Corel). The Melanoderms were prepared by carefully removing the agarose with sterile forceps and placing them in pre-warmed culture medium (37° C.) for an hour prior to treatment. The Melanoderms were then topically treated (without rubbing) with 25 μl of the various peptides, dissolved in dH2O at 10 mg/ml. […] The SEs were examined and removed from culture when skin darkening became visible. The pigmentation of the Melanoderms was macroscopically assessed by capturing high-resolution images using the Olympus microscope camera. […] They were then placed into a 6-well plate containing 1 ml PBS/well and images captured at ×8 magnification. The images were then processed using Image J & Paintshop Photo Pro software, to determine a quantifiable pixel area, which equated to the level of pigmentation present in the skin equivalent. The image brightness was normalised and the image gray-scaled using Paintshop Photo Pro, then Image J was used to threshold the image. The pigmentation was quantified by assessing total pixel area of pigmentation coverage in a fixed sample area. An ANOVA test (Dunnett's post-test) was used for the statistical analysis. Three different experiments were conducted. In the first, skin equivalents from both donors were included, and in experiment 2 and 3, only the […] donor was included. The SE of the […] donor from the first experiment received 5 treatments of 25 μl of peptide solution at 10 mg/ml; starting on the first day following receipt then on days 3, 5, 9 and 12. Peptides 1 (SEQ ID NO: 2), 3 (SEQ ID NO: 3) and 4 (SEQ ID NO: 4) were tested. The images were taken on Day 14. In experiment 2, peptide 3 and 4 were selected for testing to see if it had any efficacy in reducing melanin content or the distribution of melanin throughout the SE. This time, 5 SEs were used per treatment to improve statistical robustness. The experiment was continued for 20 days with treatments on days 0, 3, 7 and 12 and medium changes every other day. In experiment 3 a more highly pigmented SE ([…] donor melanocytes) was used and with an increased sample size with n=7 per treatment. […] Treatment was repeated on days 5, 9, 12 and 15 with medium changed every other day.

solubility of FOL-005 [1] [µg/mL] | degradation of FOL-005 ([2]; at various pH (buffers)) | degradation of FOL-005 ([2]; water free conditions) | Compound | total melanin content of skin equivalents vs vehicle control (skin equivalents) | melanin content and distribution in SE sections (Warthin Starry) (skin equivalents (SEs); one of the donors (FIG. 3A)) | melanin content and distribution in SE sections (Warthin Starry) (skin equivalents (SEs); second donor (FIG. 3B-D)) | pigmentation of skin equivalents (photographic assessment) compared to vehicle control ([3]; experiment 1, donor, 5 topical treatments of 25 μl at 10 mg/ml in dH2O, images Day 14) | pigmentation of skin equivalents (photographic assessment) compared to vehicle control ([3]; experiment 2, donor, 10 mg/ml, 20 days, n=5) | pigmentation of skin equivalents (photographic assessment) compared to vehicle control ([3]; experiment 3, more highly pigmented SE (donor), 10 mg/ml, n=7)
160 | degraded | very limited | CC[C@H](C)[C@H](NC(=O)[C@H](CC(=O)O)NC(=O)CNC(=O)[C@H](CC(=O)O)NC(=O)[C@H](Cc1ccc(O)cc1)NC(=O)[C@@H](NC(=O)[C@H](CC(=O)O)NC(=O)[C@@H](N)C(C)C)[C@@H](C)O)C(=O)N[C@@H](CO)C(=O)N[C@H](C(=O)N[C@H](C(=O)N[C@@H](Cc1ccc(O)cc1)C(=O)NCC(=O)N[C@@H](CC(C)C)C(=O)N[C@@H](CCCNC(=N)N)C(=O)O)C(C)C)C(C)C [FOL-005] (H-VDTYDGDISVVYGLR-OH; N-terminus and C-terminus assumed) |  |  |  |  |  | 
 |  |  | Ala-Ala-His-Met (AAHM; (1)..(4) Peptide 3) | no difference | reduction in melanin in the upper epidermal layers | did not appear to have any obvious effect | equivalent or slightly less pigmented than the vehicle control | slight decrease in pigmentation | little effect
